Results from patent EP4692072A1, “PHOTOCHROMIC COMPOUND, PROPARGYL ALCOHOL COMPOUND, CURABLE COMPOSITION, OPTICAL ARTICLE, LENS, AND SPECTACLES” (TOKUYAMA CORPORATION, priority 2023, dated 2024).

Test: Photochromic properties of photochromic laminate (plastic lens) prepared by coating method
Assay type: physicochemical
Conditions: 40 µm photochromic layer on thiourethane lens, 0.25 mmol compound per 100 g monomers, after color development
From the text: First, the photochromic compound obtained in Example 1, a photoinitiator, and a polymerizable compound were mixed to obtain a curable composition.
Polyethylene glycol dimethacrylate (average molecular weight: 736): 42 parts by mass • Polyethylene glycol dimethacrylate (average molecular weight: 536): 12 parts by mass • Trimethylolpropane trimethacrylate: 38 parts by mass γ-methacryloyloxypropyl trimethoxysilane: 2 parts by mass Glycidyl methacrylate: 1 part by mass
Note that the photochromic compound was added to the curable composition so that the amount of the photochromic compound was 0.25 mmol based on 100 g of the total amount of the radical-polymerizable monomers.
Phenylbis(2,4,6-trimethylbenzoyl)phosphine oxide (photoinitiator: Omnirad 819): 0.3 parts by mass Ethylene bis(oxyethylene) bis[3-(5-tert-butyl-4-hydroxy-m-tolyl)propionate] (stabilizer, Irganox 245): 1 part by mass Bis(1,2,2,6,6-pentamethyl-4-piperidyl) sebacate: 3 parts by mass Leveling agent (L7001) manufactured by Dow Corning Toray Co.,Ltd.: 0.1 part by mass
First, a thiourethane-based plastic lens having a central thickness of 2 mm and a refractive index of 1.60 was prepared as the optical substrate. Note that this thiourethane-based plastic lens was pre-treated by alkaline etching with a 10% sodium hydroxide aqueous solution at 50°C for 5 minutes, followed by sufficient washing with distilled water.
A surface of the above-described plastic lens was coated with a moisture-curable primer (product name: TR-SC-P, manufactured by Tokuyama Corporation) at a rotation frequency of 70 rpm for 15 seconds, followed by 1000 rpm for 10 seconds, using a spin coater (1H-DX2, manufactured by MIKASA CO., LTD), Subsequently, about 2 g of the photochromic curable composition obtained above was spin-coated at a rotation frequency of 60 rpm for 40 seconds, followed by 600 rpm for 10 to 20 seconds, to form a photochromic coating layer with a film thickness of 40 µm.
The lens with the surface coated with the photochromic curable composition (photochromic coating layer) was irradiated with light using a metal halide lamp with an output power of 200 mW/cm^2 in a nitrogen gas atmosphere for 90 seconds to cure the coating film. Subsequently, the lens was further heated at 110°C for 1 hour to prepare a photochromic laminate having a photochromic layer.
In the same manner as in Example 26, photochromic laminates were prepared using the photochromic compounds obtained in Examples 2 to 25.
• [1] Maximum Absorption Wavelength (λmax): The maximum absorption wavelength after color development, measured using a spectrophotometer (instantaneous multichannel photodetector MCPD3000) manufactured by Otsuka Electronics Co., Ltd. was used as an indicator for the color tone during the color development. • [2] 23°C Color Optical Density (A23): A difference between an absorbancy measured after light irradiation at 23°C for 300 seconds {ε(300)} and an absorbancy without light irradiation ε(0) at the maximum absorption wavelength was used as an indicator for the color optical density. […] 23°C color fading half-life [τ1/2 (sec.)]: A time required for the absorbancy of the sample at the maximum absorption wavelength to decrease to 1/2 of {ε(300)-ε(0)} when the light irradiation was terminated after the light irradiation at 23°C for 300 seconds, was used as an indicator for the color fading speed. The shorter this time, the higher the color fading speed. • [4] Residual rate (A120/A0×100): The obtained photochromic plastic lens was subjected to accelerated deterioration using a xenon weather meter X25 manufactured by Suga Test Instruments Co., Ltd. for 120 hours. Subsequently, the color optical density was evaluated before and after the test, then a color optical density before the test (A0) and a color optical density after the test (A120) were measured, and a ratio (A120/A0) was defined as a residual rate. The residual rate was used as an indicator for a color developing durability. […]

Structure (SMILES)	Maximum absorption wavelength	also measured
COCCCCC1(CCCCOC)c2cc(Sc3c(C)cccc3C)ccc2-c2c1c1c(c3cc(OC)ccc23)OC(c2ccc(OC)cc2)(c2ccc(N(C)c3ccc(OC)cc3)cc2)C=C1 (centres unmarked) [Example 11]	477 nm	Maximum absorption wavelength (listed as Formula (65)): 614 nm
COc1ccc(C2(c3ccc(N(C)c4ccccc4)cc3)C=Cc3c4c(c5cc(-c6ccc(N7CCOCC7)cc6)c(OC)cc5c3O2)-c2ccccc2C4(C)C)cc1 (centres unmarked) [Example 1]	502 nm	Maximum absorption wavelength (listed as Formula (37)): 601 nm
CCC1(CC)CCC2(CC1)c1cc(OC(F)(F)F)ccc1-c1c2c2c(c3cc(OC)ccc13)OC(c1ccc(N(C)c3ccccc3)cc1)(c1ccc(OC)c(C)c1)C=C2 (centres unmarked) [Example 16]	472 nm	Maximum absorption wavelength (listed as Formula (77)): 584 nm
COCCOCCC1(CCOCCOC)c2cc(C)ccc2-c2c1c1c(c3cc(C)ccc23)OC(c2ccc(N(C)c3ccc(F)cc3)cc2)(c2ccc(OC)c(OC)c2)C=C1 (centres unmarked) [Example 8]	474 nm	Maximum absorption wavelength (listed as Formula (57)): 597 nm
COc1ccc(N(C)c2ccc(C3(c4ccc(CCO[Si](C)(C)CC[Si](O[Si](C)(C)C)(O[Si](C)(C)C)O[Si](C)(C)C)cc4)C=Cc4c5c(c6cc(N(C)c7ccccc7)c(OC)cc6c4O3)-c3ccc(C(F)(F)F)cc3C53CCC(C)(C)CC3)cc2)cc1 (centres unmarked) [Example 60]	523 nm	Maximum absorption wavelength (listed as Formula (121)): 582 nm
COCCN(c1ccccc1)c1ccc(C2(c3ccc4c(c3)OCCO4)C=Cc3c4c(c5cc6c(cc5c3O2)SC(C)(C)O6)-c2ccccc2C42CCC3(CCCCC3)CC2)cc1 (centres unmarked) [Example 14]	492 nm	Maximum absorption wavelength (listed as Formula (72)): 586 nm
CCCc1ccc(C2(c3ccc(N(C)c4ccccc4)cc3)C=Cc3c4c(c5cc(Sc6c(C)cccc6C)c(OC)cc5c3O2)-c2ccccc2C42CC(C)(C)CC(C)(C)C2)cc1 (centres unmarked) [Example 5]	509 nm	Maximum absorption wavelength (listed as Formula (51)): 591 nm
CCCC1(CCC)c2ccccc2-c2c1c1c(c3cc(OC)c(-c4ccc(OC)cc4OC)cc23)OC(c2ccc(N(C)c3ccccc3)cc2)(c2ccc(OC)c(F)c2)C=C1 (centres unmarked) [Example 7]	496 nm	Maximum absorption wavelength (listed as Formula (55)): 603 nm
CCCC1(CCC)c2cc(OC)ccc2-c2c1c1c(c3cc(OC)ccc23)OC(c2ccc(OC)cc2)(c2ccc(N(C)c3ccccc3)cc2)C=C1 (centres unmarked) [Example 3]	470 nm	Maximum absorption wavelength (listed as Formula (46)): 612 nm
CCCCN(c1ccccc1)c1ccc(C2(c3ccc(C)cc3)C=Cc3c4c(c5cc(N6CCOCC6)c(OC)cc5c3O2)-c2ccccc2C4(CC)CC)cc1 (centres unmarked) [Example 10]	512 nm	Maximum absorption wavelength (listed as Formula (62)): 598 nm

The next lines start with results.

Maximum absorption wavelength	Structure (SMILES)	also measured
505 nm	CCN(c1ccc(OC)cc1)c1ccc(C2(c3ccc(OC)cc3)C=Cc3c4c(c5cc(-c6ccc(N7CCOCC7)cc6)c(OC)cc5c3O2)-c2ccccc2C4(C)C)cc1 (centres unmarked) [Example 25]	Maximum absorption wavelength (listed as Formula (88)): 605 nm
477 nm	COCCCCC1(CCCCOC)c2ccccc2-c2c1c1c(c3cc(-c4ccc(OC)cc4OC)c(OC)cc23)OC(c2ccc(N(C)c3ccccc3)cc2)(c2ccc3c(c2)CCO3)C=C1 (centres unmarked) [Example 62]	Maximum absorption wavelength (listed as Formula (124)): 587 nm
504 nm	CCCC1(CCC)c2ccccc2-c2c1c1c(c3cc(OC)c(-c4ccc(N(C)c5ccccc5)cc4)cc23)OC(c2ccc(C)cc2)(c2ccc(N(C)c3ccccc3)cc2)C=C1 (centres unmarked) [Example 24]	Maximum absorption wavelength (listed as Formula (86)): 599 nm
489 nm	CCCCC1(CCCC)c2cc(-c3ccc(OC(C)C)cc3)ccc2-c2c1c1c(c3cc(OC)ccc23)OC(c2ccc(N(C)c3ccccc3)cc2)(c2ccc(OC)c(F)c2)C=C1 (centres unmarked) [Example 21]	Maximum absorption wavelength (listed as Formula (83)): 609 nm
494 nm	CCCC1(CCC)c2ccccc2-c2c1c1c(c3cc(OC)c(-c4ccc(OC)cc4OC)cc23)OC(c2ccc(C)cc2)(c2ccc(N(C)c3ccccc3)cc2)C=C1 (centres unmarked) [Example 19]	Maximum absorption wavelength (listed as Formula (80)): 604 nm
493 nm	CCCC1(CCC)c2cc(OC(F)(F)F)ccc2-c2c1c1c(c3cc(OC)c(Sc4c(C)cccc4C)cc23)OC(c2ccc(N(C)c3ccccc3)cc2)(c2ccc(OC)c(OC)c2)C=C1 (centres unmarked) [Example 57]	Maximum absorption wavelength (listed as Formula (110)): 615 nm
506 nm	COCCC1(CCOC)c2ccccc2-c2c1c1c(c3cc(OC)c(-c4ccc(N(c5ccccc5)c5ccccc5)cc4)cc23)OC(c2ccc(Oc3ccccc3)cc2)(c2ccc(N(C)c3ccccc3)cc2)C=C1 (centres unmarked) [Example 23]	Maximum absorption wavelength (listed as Formula (85)): 609 nm
482 nm	COCCOCCOCCOCCC1(CCOCCOCCOCCOC)c2cc(C(F)(F)F)ccc2-c2c1c1c(c3cc(OC)c(OC)cc23)OC(c2ccc(OC)cc2)(c2ccc(N(C)c3ccccc3)cc2)C=C1 (centres unmarked) [Example 51]	Maximum absorption wavelength (listed as Formula (89)): 603 nm
500 nm	CCCCOCCC1(CCOCCCC)c2ccccc2-c2c1c1c(c3cc(OC)c(NC(=O)c4ccccc4)cc23)OC(c2ccc(N(C)c3ccccc3)cc2)(c2ccc(OC)c(F)c2)C=C1 (centres unmarked) [Example 53]	Maximum absorption wavelength (listed as Formula (95)): 605 nm
